Data on five molecules can be found in article PMC12281477, “Live-Cell NanoBRET Assay to Measure AKT Inhibitor Binding to Conformational States of AKT” (ACS Chemical Biology, 2025).

In one assay the test system is MDA-MB-468 cells. Kind of assay: Resazurin cell viability assay, MDA-MB-468. The format is cell-based. The note with it: Homo sapiens, MDA-MB-468, 120 h, 5 days, ± SEM, n = 3. (In general: Alamar Blue is a resazurin reagent that responds to reducing activity.)
The target of a further assay is T1, Myr-AKT1-NL (Homo sapiens, UniProt P31749).
T1 construct: host or cells: HEK293T
Kind of assay: NanoBRET target engagement assay, Myr-AKT1-NL. In kind it is binding. An excerpt:
It was puzzling to understand why ATP-competitive inhibitors bound more tightly to some pathological mutants. […] To achieve an active AKT population characterized by increased phosphorylation and membrane association, we created N-terminally myristoylated AKT1–3-NL constructs (Figure A). AKT myristoylation is commonly used to keep AKT membrane-associated and available for phosphorylation by PDK1 and mTORC2. , We decided to use myristoylation instead of treatment with a PI3K-AKT stimulating hormone such as IGF1 because of transient time-dependent effects on phosphorylation that complicates the reproducibility of our NanoBRET assay. , Bioluminescent imaging of Myr-AKT1-NL, Myr-AKT2-NL, and Myr-AKT3-NL constructs confirmed that each isoform was associated at the cell membrane (Figure S4A).
Statistics were performed in Origin 2023.
On the technique in general: Bioluminescence resonance energy transfer reports proximity on the nanometre scale.

The target of assay [1] is T2, AKT1-NL (Homo sapiens, UniProt P31749).
T2 construct: full-length versions of AKT1, AKT2, and AKT3, were separately subcloned into pNLF1-N or pNLF1-C vectors; expressed in transfected cells; host or cells: HEK293T
The experiment in a line: Bioluminescent imaging of AKT1-NL localization in HEK293T cells. The format is cell-based. To be noted: 2 h treatment, compared to DMSO. The procedure: (§1) We also performed bioluminescent imaging on AKT1-NL, AKT2-NL, and AKT3-NL transfected into HEK293T cells treated individually with all AKT inhibitors for 2 h (Figure S1F). […] After incubation, 2 μL of NanoGlo substrate was added to each well and imaged using the GloMax Galaxy Bioluminescence Imager utilizing a 40× objective (Nikon CFI Plan Fluor- Material Number MRH01401) and exposure times ranging from 32 to 100 s. […] Images were processed in Fiji.

Assay [2] concerns the target T2, AKT1-NL. Kind of assay: Live-cell steady-state NanoBRET target engagement assay, AKT1-NL. The format is binding.
Description: (§2) In this live-cell assay, bioluminescence resonance energy transfer (BRET) produced by the interaction of a transfected NanoLuciferase (NL)-tagged protein of interest and a protein-bound Bodipy-containing tracer molecule is dose-dependently competed out with a drug.
(§3) This solution was aliquoted into white adherent 96-well plates at a volume of 100 μL/well and incubated for 24 h at 37 °C and 5% CO2. […] Following all inhibitor and tracer additions, cells were incubated at 37 °C and 5% CO2 for 2 h. 50 μL of a 3× solution of Opti-MEM containing a NanoGlo substrate and NanoLuciferase inhibitor provided in the NanoBRET kit were added to each well.
(§4) Calculated K i values were calculated using the following formula Ki=IC50,tracer/(1+[tracer]/EC50,tracer)
Assay [3] concerns the target T3, AKT3-NL (Homo sapiens, UniProt Q9Y243). Kind of assay: Bioluminescent imaging of AKT3-NL localization in HEK293T cells. In kind it is cell-based. The note with it: 2 h treatment, compared to DMSO. The arrangement: full-length versions of AKT1, AKT2, and AKT3, were separately subcloned into pNLF1-N or pNLF1-C vectors; expressed in transfected cells; host or cells: HEK293T. The method, then:
as §1

The target of assay [4] is T3, AKT3-NL. The experiment in a line: Live-cell steady-state NanoBRET target engagement assay, AKT3-NL.
Description: as §2, §3, §4
The next assay relates to MDA-MB-231 cells. Kind of assay: Resazurin cell viability assay, MDA-MB-231. In kind it is cell-based. To be noted: Homo sapiens, MDA-MB-231, 120 h, 5 days, ± SEM, n = 3.
A further assay deals with T4, PDK1-NL (Homo sapiens, UniProt O15530).
T4 sequence (O15530 1-556): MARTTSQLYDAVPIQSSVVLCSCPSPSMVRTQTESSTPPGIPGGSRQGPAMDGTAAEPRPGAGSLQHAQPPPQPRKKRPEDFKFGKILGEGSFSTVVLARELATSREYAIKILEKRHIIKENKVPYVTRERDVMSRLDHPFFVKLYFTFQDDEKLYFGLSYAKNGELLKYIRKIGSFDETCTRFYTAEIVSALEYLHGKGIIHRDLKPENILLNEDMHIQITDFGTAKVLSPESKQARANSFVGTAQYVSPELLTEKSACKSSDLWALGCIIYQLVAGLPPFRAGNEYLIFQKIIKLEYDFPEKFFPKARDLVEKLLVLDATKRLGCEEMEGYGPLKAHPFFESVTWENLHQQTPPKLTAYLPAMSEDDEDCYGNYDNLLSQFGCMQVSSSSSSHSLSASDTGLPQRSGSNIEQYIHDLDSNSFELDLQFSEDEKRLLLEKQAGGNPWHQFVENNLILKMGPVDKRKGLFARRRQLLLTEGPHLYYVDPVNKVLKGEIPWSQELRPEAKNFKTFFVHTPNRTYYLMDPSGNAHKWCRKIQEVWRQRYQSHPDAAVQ
The experiment in a line: NanoBRET competition assay using PDK1-NL. In kind it is binding. To be noted: ± SEM, n = 3 biological replicates; read-out: PDK1-NL calculated Ki.

Another assay has as its target T5, AKT3-E17K-NL (Homo sapiens, UniProt Q9Y243, E17K).
T5 construct: full-length versions of AKT1, AKT2, and AKT3, were separately subcloned into pNLF1-N or pNLF1-C vectors; expressed in transfected cells
Kind of assay: NanoBRET competition assay, AKT3-E17K-NL. The format is binding.

Another assay deals with T6, AKT2-NL (Homo sapiens, UniProt P31751).
T6 construct: full-length versions of AKT1, AKT2, and AKT3, were separately subcloned into pNLF1-N or pNLF1-C vectors; expressed in transfected cells; host or cells: HEK293T
Kind of assay: Bioluminescent imaging of AKT2-NL localization in HEK293T cells. In kind it is cell-based. The note with it: 2 h treatment, compared to DMSO. The procedure: as §1

The mark [5] stands for this setting: vs absence of BX-795, 0.2% DMSO.

T3 sequence (Q9Y243 whole entry): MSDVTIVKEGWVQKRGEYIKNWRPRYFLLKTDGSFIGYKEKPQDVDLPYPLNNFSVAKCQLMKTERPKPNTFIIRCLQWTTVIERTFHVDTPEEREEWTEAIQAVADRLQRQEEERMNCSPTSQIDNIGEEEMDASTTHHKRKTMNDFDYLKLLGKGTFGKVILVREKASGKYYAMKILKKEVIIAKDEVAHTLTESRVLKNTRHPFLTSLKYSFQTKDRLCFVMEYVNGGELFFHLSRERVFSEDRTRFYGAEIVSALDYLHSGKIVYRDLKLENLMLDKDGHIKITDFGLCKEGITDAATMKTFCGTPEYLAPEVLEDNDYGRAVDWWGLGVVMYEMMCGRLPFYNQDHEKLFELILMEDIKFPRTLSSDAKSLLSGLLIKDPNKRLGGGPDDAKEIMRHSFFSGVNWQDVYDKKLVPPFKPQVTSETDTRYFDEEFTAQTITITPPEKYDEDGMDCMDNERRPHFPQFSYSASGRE
T2 sequence (P31749 whole entry): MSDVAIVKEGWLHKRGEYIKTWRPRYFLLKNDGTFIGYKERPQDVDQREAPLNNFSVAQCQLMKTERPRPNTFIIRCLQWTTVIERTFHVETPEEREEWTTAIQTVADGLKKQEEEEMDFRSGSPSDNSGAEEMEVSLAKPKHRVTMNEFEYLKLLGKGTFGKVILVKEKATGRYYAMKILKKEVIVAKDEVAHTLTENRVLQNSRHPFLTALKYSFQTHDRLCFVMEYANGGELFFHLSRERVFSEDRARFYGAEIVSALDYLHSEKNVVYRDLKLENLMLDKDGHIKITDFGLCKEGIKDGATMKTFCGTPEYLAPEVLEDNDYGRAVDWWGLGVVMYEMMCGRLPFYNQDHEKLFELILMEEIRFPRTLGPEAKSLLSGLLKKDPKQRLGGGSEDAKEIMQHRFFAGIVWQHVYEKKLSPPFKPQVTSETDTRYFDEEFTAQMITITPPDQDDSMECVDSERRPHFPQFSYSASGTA
T1 sequence (P31749 whole entry): as above
T6 sequence (P31751 whole entry): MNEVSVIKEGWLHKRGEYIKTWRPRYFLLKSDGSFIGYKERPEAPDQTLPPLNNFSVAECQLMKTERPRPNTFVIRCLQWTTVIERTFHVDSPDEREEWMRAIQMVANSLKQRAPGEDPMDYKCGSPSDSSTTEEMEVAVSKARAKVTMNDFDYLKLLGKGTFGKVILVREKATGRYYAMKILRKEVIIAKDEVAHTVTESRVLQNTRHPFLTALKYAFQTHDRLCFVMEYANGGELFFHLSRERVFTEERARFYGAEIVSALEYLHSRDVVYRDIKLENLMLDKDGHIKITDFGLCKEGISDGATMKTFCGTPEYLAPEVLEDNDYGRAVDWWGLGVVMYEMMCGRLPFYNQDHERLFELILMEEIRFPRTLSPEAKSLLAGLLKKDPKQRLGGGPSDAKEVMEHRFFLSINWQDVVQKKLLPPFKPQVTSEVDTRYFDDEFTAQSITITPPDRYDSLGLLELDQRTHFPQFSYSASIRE
T5 sequence (Q9Y243 whole entry E17K): as the sequence (Q9Y243 whole entry) above, with E17K counted along it
Description for AKT3-E17K-NL: We next quantified the binding of ATP-competitive and allosteric inhibitors to these pathogenic mutants.
For coexpression experiments with Myr-AKT1-NL and PDK1, a DNA ratio of 9:0.5:0.5, μg/mL carrier DNA/Myr-AKT1-NL: PDK1 was used. This solution was aliquoted into white adherent 96-well plates at a volume of 100 μL/well and incubated for 24 h at 37 °C and 5% CO2. […] Following all inhibitor and tracer additions, cells were incubated at 37 °C and 5% CO2 for 2 h. 50 μL of a 3× solution of Opti-MEM containing a NanoGlo substrate and NanoLuciferase inhibitor provided in the NanoBRET kit were added to each well.
as §4
Description for PDK1-NL: as §3, §4

Consider `Cc1n[nH]c2ccc(-c3cncc(OCC(N)Cc4c[nH]c5ccccc45)c3)cc12` (stereo not shown) [A-443654], for which the IC50 (usually the point on the concentration scale where inhibition reaches its midpoint) in the assay with MDA-MB-468 cells amounted to 0.02 ± 0.001 µM; in the assay on MDA-MB-231 cells, 0.33 ± 0.01 µM. For the same molecule, the “Binding to Myr-AKT1-NL in the presence of 1 μM BX-795” value at Myr-AKT1-NL (setting [5]) is “bound more weakly”. Further, the AKT1-NL localization change result at AKT1-NL [1] was “induced movement of all isoforms to the cell membrane and nucleus”. Further, the Ki (usually the equilibrium dissociation constant of an inhibitor or competing ligand from its target) at AKT1-NL [2] came to 0.0327 ± 0.0141 µM; at AKT3-NL [4], 0.0166 ± 0.0055 µM. Moreover, the “Binding to AKT1-NL in the presence of 1 μM BX-795” value on AKT1-NL [2] (setting [5]) was “unaffected”. Besides, the AKT3-NL localization change result at AKT3-NL [3] was “induced movement of all isoforms to the cell membrane and nucleus”.

As to `O=C(NCCCNc1nc(Nc2cccc(NC(=O)N3CCCC3)c2)ncc1I)c1cccs1` [BX-795], the “Concentration at which some binding to Myr-AKT1-NL was observed” value at Myr-AKT1-NL (dose-response curve) was “higher than 1 μM”. Moreover, the “Concentration at which some binding to AKT1-NL was observed” value at AKT1-NL [2] (dose-response curve) is “higher than 1 μM”. The Ki at PDK1-NL is 0.00585 ± 0.00042 µM.

`NC1(c2ccc(-c3nc4ccn5c(=O)[nH]nc5c4cc3-c3ccccc3)cc2)CCC1` [MK-2206]: at AKT1-NL [1], the AKT1-NL localization change result was “did not induce AKT localization changes”. Besides, the AKT3-NL localization change entry at AKT3-NL [3] is “did not induce AKT localization changes”. For the same molecule, the “Binding to AKT3-E17K-NL” value on AKT3-E17K-NL is reported as “did not bind”. Moreover, the AKT2-NL localization change result on AKT2-NL was “did not induce AKT localization changes”.

Take `O=c1[nH]c2ccccc2n1C1CCN(Cc2ccc(-c3nc4cc5[nH]cnc5cc4nc3-c3ccccc3)cc2)CC1` [inhibitor VIII]: the AKT1-NL localization change entry at AKT1-NL [1] is recorded as “did not induce AKT localization changes”. Moreover, the AKT3-NL localization change result on AKT3-NL [3] was “did not induce AKT localization changes”. The AKT2-NL localization change entry on AKT2-NL is “did not induce AKT localization changes”.

Turning to `CC(C)NC[C@@H](C(=O)N1CCN(c2ncnc3c2[C@H](C)C[C@H]3O)CC1)c1ccc(Cl)cc1` [ipatasertib], the AKT1-NL localization change entry on AKT1-NL [1] is given as “induced the movement of some AKT to the cell membrane”.
